What was measured:
Experiment in all cases: relative viability (nuclei count vs DMSO), 5 days (fraction); higher = more cells survive
Sorafenib + Vorinostat = compound: CNC(=O)c1cc(Oc2ccc(NC(=O)Nc3ccc(Cl)c(C(F)(F)F)c3)cc2)ccn1 [Sorafenib] + O=C(CCCCCCC(=O)Nc1ccccc1)NO [Vorinostat] (partner 1 µM)
In short: (§1)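 Relative viability divides the nuclei count in treated wells by that in vehicle wells. Lung cancer cell lines were seeded in 1536-well plates, dosed by pin tool the next day, and fixed and stained after 5 days in one step with final 0.05% Triton X-100, 1% formaldehyde and 1 ug/ml Hoechst. Dosing was a single drug or a fixed anchor-drug dose plus five library-drug doses (not always all listed) in √10 steps, and values are medians of duplicate plates imaged at 4×.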

Sorafenib + Palbociclib = compound: CNC(=O)c1cc(Oc2ccc(NC(=O)Nc3ccc(Cl)c(C(F)(F)F)c3)cc2)ccn1 [Sorafenib] + CC(=O)c1c(C)c2cnc(Nc3ccc(N4CCNCC4)cn3)nc2n(C2CCCC2)c1=O [Palbociclib] (partner 0.5 µM)
In short: as §1

Sorafenib + Olaparib = compound: CNC(=O)c1cc(Oc2ccc(NC(=O)Nc3ccc(Cl)c(C(F)(F)F)c3)cc2)ccn1 [Sorafenib] + O=C(c1cc(Cc2n[nH]c(=O)c3ccccc23)ccc1F)N1CCN(C(=O)C2CC2)CC1 [Olaparib] (partner 8 µM)
In short: as §1

Sorafenib + Decitabine = compound: CNC(=O)c1cc(Oc2ccc(NC(=O)Nc3ccc(Cl)c(C(F)(F)F)c3)cc2)ccn1 [Sorafenib] + Nc1ncn([C@H]2C[C@H](O)[C@@H](CO)O2)c(=O)n1 [Decitabine] (partner 2 µM)
In short: as §1

Sorafenib + Tozasertib = compound: CNC(=O)c1cc(Oc2ccc(NC(=O)Nc3ccc(Cl)c(C(F)(F)F)c3)cc2)ccn1 [Sorafenib] + Cc1cc(Nc2cc(N3CCN(C)CC3)nc(Sc3ccc(NC(=O)C4CC4)cc3)n2)n[nH]1 [Tozasertib] (partner 0.1 µM)
In short: as §1

Sorafenib + Trametinib = compound: CNC(=O)c1cc(Oc2ccc(NC(=O)Nc3ccc(Cl)c(C(F)(F)F)c3)cc2)ccn1 [Sorafenib] + CC(=O)Nc1cccc(-n2c(=O)n(C3CC3)c(=O)c3c(Nc4ccc(I)cc4F)n(C)c(=O)c(C)c32)c1 [Trametinib] (partner 0.02 µM)
In short: as §1

Sorafenib + AZD7762 = compound: CNC(=O)c1cc(Oc2ccc(NC(=O)Nc3ccc(Cl)c(C(F)(F)F)c3)cc2)ccn1 [Sorafenib] + NC(=O)Nc1cc(-c2cccc(F)c2)sc1C(=O)N[C@H]1CCCNC1 [AZD7762] (partner 0.2 µM)
In short: as §1

Sorafenib + Pemetrexed = compound: CNC(=O)c1cc(Oc2ccc(NC(=O)Nc3ccc(Cl)c(C(F)(F)F)c3)cc2)ccn1 [Sorafenib] + Nc1nc2[nH]cc(CCc3ccc(C(=O)N[C@@H](CCC(=O)O)C(=O)O)cc3)c2c(=O)[nH]1 [Pemetrexed] (partner 0.2 µM)
In short: as §1

Sorafenib + OSI-027 = compound: CNC(=O)c1cc(Oc2ccc(NC(=O)Nc3ccc(Cl)c(C(F)(F)F)c3)cc2)ccn1 [Sorafenib] + COc1cccc2cc(-c3nc([C@H]4CC[C@H](C(=O)O)CC4)n4ncnc(N)c34)[nH]c12 [OSI-027] (partner 0.5 µM)
In short: as §1

Sorafenib = compound: CNC(=O)c1cc(Oc2ccc(NC(=O)Nc3ccc(Cl)c(C(F)(F)F)c3)cc2)ccn1 [Sorafenib]
In short: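 Lung cancer cell lines in 1536-well plates were kept overnight at 37 °C, then pinned with five library-drug doses (not always all listed) spaced by √10 on vehicle-anchored plates. After 5 days without medium change, cells were fixed, permeabilised and Hoechst-stained in one step, imaged at 4×, and nuclei were counted with MetaXpress. Viability is treated-well nuclei divided by vehicle-well nuclei, taken as the median over plates. Plates passed only with control CV below 25% and at least one doubling.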

Sorafenib + Linsitinib = compound: CNC(=O)c1cc(Oc2ccc(NC(=O)Nc3ccc(Cl)c(C(F)(F)F)c3)cc2)ccn1 [Sorafenib] + C[C@]1(O)C[C@@H](c2nc(-c3ccc4ccc(-c5ccccc5)nc4c3)c3c(N)nccn32)C1 [Linsitinib] (partner 1 µM)
In short: as §1

Sorafenib + Alpelisib = compound: CNC(=O)c1cc(Oc2ccc(NC(=O)Nc3ccc(Cl)c(C(F)(F)F)c3)cc2)ccn1 [Sorafenib] + Cc1nc(NC(=O)N2CCC[C@H]2C(N)=O)sc1-c1ccnc(C(C)(C)C(F)(F)F)c1 [Alpelisib] (partner 2 µM)
In short: as §1

Sorafenib + Navitoclax = compound: CNC(=O)c1cc(Oc2ccc(NC(=O)Nc3ccc(Cl)c(C(F)(F)F)c3)cc2)ccn1 [Sorafenib] + CC1(C)CCC(c2ccc(Cl)cc2)=C(CN2CCN(c3ccc(C(=O)NS(=O)(=O)c4ccc(N[C@H](CCN5CCOCC5)CSc5ccccc5)c(S(=O)(=O)C(F)(F)F)c4)cc3)CC2)C1 [Navitoclax] (partner 0.5 µM)
In short: as §1

Sorafenib + Lapatinib = compound: CNC(=O)c1cc(Oc2ccc(NC(=O)Nc3ccc(Cl)c(C(F)(F)F)c3)cc2)ccn1 [Sorafenib] + CS(=O)(=O)CCNCc1ccc(-c2ccc3ncnc(Nc4ccc(OCc5cccc(F)c5)c(Cl)c4)c3c2)o1 [Lapatinib] (partner 2 µM)
In short: as §1

Sorafenib + Foretinib = compound: CNC(=O)c1cc(Oc2ccc(NC(=O)Nc3ccc(Cl)c(C(F)(F)F)c3)cc2)ccn1 [Sorafenib] + COc1cc2c(Oc3ccc(NC(=O)C4(C(=O)Nc5ccc(F)cc5)CC4)cc3F)ccnc2cc1OCCCN1CCOCC1 [Foretinib] (partner 0.25 µM)
In short: as §1

Sorafenib + Bortezomib = compound: CNC(=O)c1cc(Oc2ccc(NC(=O)Nc3ccc(Cl)c(C(F)(F)F)c3)cc2)ccn1 [Sorafenib] + CC(C)C[C@H](NC(=O)[C@H](Cc1ccccc1)NC(=O)c1cnccn1)B(O)O [Bortezomib] (partner 0.002 µM)
In short: as §1

Sorafenib + Crizotinib = compound: CNC(=O)c1cc(Oc2ccc(NC(=O)Nc3ccc(Cl)c(C(F)(F)F)c3)cc2)ccn1 [Sorafenib] + C[C@@H](Oc1cc(-c2cnn(C3CCNCC3)c2)cnc1N)c1c(Cl)ccc(F)c1Cl [Crizotinib] (partner 1 µM)
In short: as §1

Sorafenib + Pictilisib = compound: CNC(=O)c1cc(Oc2ccc(NC(=O)Nc3ccc(Cl)c(C(F)(F)F)c3)cc2)ccn1 [Sorafenib] + CS(=O)(=O)N1CCN(Cc2cc3nc(-c4cccc5[nH]ncc45)nc(N4CCOCC4)c3s2)CC1 [Pictilisib] (partner 1 µM)
In short: as §1

## NCI-H1648
Sorafenib + Vorinostat; first compound 0.08 µM
  relative viability: 0.404
Sorafenib + Vorinostat; first compound 2.53 µM
  relative viability: 0.482
Sorafenib + Vorinostat; first compound 8 µM
  relative viability: 0.321
Sorafenib + Palbociclib; first compound 0.08 µM
  relative viability: 0.307
Sorafenib + Palbociclib; first compound 2.53 µM
  relative viability: 0.249
Sorafenib + Palbociclib; first compound 8 µM
  relative viability: 0.231
Sorafenib + Olaparib; first compound 0.08 µM
  relative viability: 0.787
Sorafenib + Olaparib; first compound 2.53 µM
  relative viability: 0.76
Sorafenib + Olaparib; first compound 8 µM
  relative viability: 0.721
Sorafenib + Decitabine; first compound 0.08 µM
  relative viability: 0.521
Sorafenib + Decitabine; first compound 2.53 µM
  relative viability: 0.682
Sorafenib + Decitabine; first compound 8 µM
  relative viability: 0.409
Sorafenib + Tozasertib; first compound 0.08 µM
  relative viability: 0.566
Sorafenib + Tozasertib; first compound 0.253 µM
  relative viability: 0.4
Sorafenib + Tozasertib; first compound 2.53 µM
  relative viability: 0.282
Sorafenib + Tozasertib; first compound 8 µM
  relative viability: 0.405
Sorafenib + Trametinib; first compound 0.08 µM
  relative viability: 0.468
Sorafenib + Trametinib; first compound 2.53 µM
  relative viability: 0.454
Sorafenib + Trametinib; first compound 8 µM
  relative viability: 0.258
Sorafenib + AZD7762; first compound 0.08 µM
  relative viability: 0.704
Sorafenib + AZD7762; first compound 2.53 µM
  relative viability: 0.74
Sorafenib + AZD7762; first compound 8 µM
  relative viability: 0.498
Sorafenib + Pemetrexed; first compound 0.08 µM
  relative viability: 0.771
Sorafenib + Pemetrexed; first compound 2.53 µM
  relative viability: 0.708
Sorafenib + Pemetrexed; first compound 8 µM
  relative viability: 0.731
Sorafenib + OSI-027; first compound 0.08 µM
  relative viability: 0.235
Sorafenib + OSI-027; first compound 0.253 µM
  relative viability: 0.264
Sorafenib + OSI-027; first compound 2.53 µM
  relative viability: 0.247
Sorafenib + OSI-027; first compound 8 µM
  relative viability: 0.247
Sorafenib; 0.08 µM
  relative viability: 0.921
Sorafenib; 0.253 µM
  relative viability: 0.53
Sorafenib; 2.53 µM
  relative viability: 0.925
Sorafenib; 8 µM
  relative viability: 0.726

## NCI-H1703
Sorafenib + Linsitinib; first compound 0.08 µM
  relative viability: 0.642
Sorafenib + Linsitinib; first compound 0.253 µM
  relative viability: 0.336
Sorafenib + Linsitinib; first compound 2.53 µM
  relative viability: 0.142
Sorafenib + Linsitinib; first compound 8 µM
  relative viability: 0.179
Sorafenib + Alpelisib; first compound 0.08 µM
  relative viability: 0.301
Sorafenib + Alpelisib; first compound 0.253 µM
  relative viability: 0.176
Sorafenib + Alpelisib; first compound 2.53 µM
  relative viability: 0.189
Sorafenib + Alpelisib; first compound 8 µM
  relative viability: 0.156
Sorafenib + Navitoclax; first compound 0.08 µM
  relative viability: 1.03
Sorafenib + Navitoclax; first compound 0.253 µM
  relative viability: 0.319
Sorafenib + Navitoclax; first compound 2.53 µM
  relative viability: 0.215
Sorafenib + Navitoclax; first compound 8 µM
  relative viability: 0.148
Sorafenib + Lapatinib; first compound 0.08 µM
  relative viability: 0.716
Sorafenib + Lapatinib; first compound 0.253 µM
  relative viability: 0.435
Sorafenib + Lapatinib; first compound 2.53 µM
  relative viability: 0.28
Sorafenib + Lapatinib; first compound 8 µM
  relative viability: 0.221
Sorafenib + Olaparib; first compound 0.08 µM
  relative viability: 0.317
Sorafenib + Olaparib; first compound 0.253 µM
  relative viability: 0.27
Sorafenib + Olaparib; first compound 2.53 µM
  relative viability: 0.194
Sorafenib + Olaparib; first compound 8 µM
  relative viability: 0.192
Sorafenib + Foretinib; first compound 0.08 µM
  relative viability: 0.384
Sorafenib + Foretinib; first compound 0.253 µM
  relative viability: 0.283
Sorafenib + Foretinib; first compound 2.53 µM
  relative viability: 0.298
Sorafenib + Foretinib; first compound 8 µM
  relative viability: 0.278
Sorafenib + Bortezomib; first compound 0.08 µM
  relative viability: 0.193
Sorafenib + Bortezomib; first compound 0.253 µM
  relative viability: 0.207
Sorafenib + Bortezomib; first compound 2.53 µM
  relative viability: 0.183
Sorafenib + Bortezomib; first compound 8 µM
  relative viability: 0.151
Sorafenib + AZD7762; first compound 0.08 µM
  relative viability: 0.125
Sorafenib + AZD7762; first compound 0.253 µM
  relative viability: 0.133
Sorafenib + AZD7762; first compound 2.53 µM
  relative viability: 0.134
Sorafenib + AZD7762; first compound 8 µM
  relative viability: 0.106
Sorafenib + Crizotinib; first compound 0.08 µM
  relative viability: 0.588
Sorafenib + Crizotinib; first compound 0.253 µM
  relative viability: 0.209
Sorafenib + Crizotinib; first compound 2.53 µM
  relative viability: 0.141
Sorafenib + Crizotinib; first compound 8 µM
  relative viability: 0.157
Sorafenib + Pictilisib; first compound 0.08 µM
  relative viability: 0.243
Sorafenib + Pictilisib; first compound 0.253 µM
  relative viability: 0.21
Sorafenib + Pictilisib; first compound 2.53 µM
  relative viability: 0.197
Sorafenib + Pictilisib; first compound 8 µM
  relative viability: 0.177
Sorafenib; 0.08 µM
  relative viability: 0.859
Sorafenib; 0.253 µM
  relative viability: 0.46
Sorafenib; 2.53 µM
  relative viability: 0.271
Sorafenib; 8 µM
  relative viability: 0.249
